Reference: patent publication US5939403A, “Keratan sulfate oligosaccharide fraction and pharmaceutical containing the same” (Seikagaku Corporation, priority 1994, dated 1999)
Where a name gives a salt, the structure may show the parent alone.

Tests used:
papain-induced arthritis = test: Papain-induced unilateral arthritis model, intramuscular administration (volume of synovial fluid); type: in vivo, Japanese white rabbits (female); details: for quantity of synovial fluid (FIG. 5, result in words): 10 rabbits per group; for Volume of Synovial Fluid: 7 days, control 722, normal 433
Experimental: The anti-inflammatory effect of the keratan sulfate oligosaccharide with rabbits of the papain-induced arthritis model was examined using the volume of synovial fluid as an indication.
Seven days after the injection, the blood was drawn from the auricular artery, and plasma containing heparin was separated. After drawing the blood, the rabbits were anatomized and the both knee joint were separated. The articular cavity was washed with 2 ml of saline three times to recover the synovial fluid. The calcium concentrations in the plasma and the recovered synovial fluid were determined, and the volume of synovial fluid was calculated from the following formula.
Volume of Synovial Fluid (ul/articulation)=Amount of Calcium in Recovered
Synovial Fluid (μg/articulation)/Concentration of Calcium in Plasma
Into the articular cavity of left joint of Japanese white rabbits (female) of 3 kg weight, 150 μl of the saline solution of papain (1%) was injected, and the right joint was not treated to prepare the unilateral arthritis model. One day after injecting papain, 150 μl of the PBS solution of the purified keratan sulfate tetrasaccharide (I) (2%, 1%, and 0.5% solution; 1.0 mg/kg, 0.5 mg/kg, and 0.25 mg/kg, respectively) which was prepared in Example 1 was injected into the hip muscle of the left side (hereinafter referred to as "the keratan sulfate tetrasaccharide (I) administered group"). As the control, 150 μl of PBS was injected to the arthritis model instead of the PBS solution of the keratan sulfate tetrasaccharide (I) and hereinafter these rabbits are referred to as "the control group". And the normal rabbits not subjected to the papain injection (hereinafter referred to as "the normal group") were also examined in the same manner hereinafter. Seven days after the injection, the volume of synovial fluid was calculated in the same manner as in (1-1).
The examination was performed in the same manner as in (1-3) except for using 150 μl of the PBS solution of the purified keratan sulfate tetrasaccharide (I), the keratan sulfate pentasaccharide (II), and the keratan sulfate disaccharide (III) (1% solution; 0.5 mg/kg) which were prepared in Example 1. In the figure, *, **, and *** represent that they have the significant difference with p<0.05, p<0.01, and p<0.001, respectively. And in each group, 10 rabbits were used for the examination.

[1] = tested on: neutrophile of guinea pig; test: Inhibition of active oxygen (O2^-) generation in FMLP-stimulated neutrophile; type: cell-based, female Hartley guinea pigs
Experimental: To female Hartley guinea pigs of five weeks old (purchased from Japan SLC), 20 ml of the 0.2% aqueous solution of glycogen (Type II; Oyster; Sigma) dissolved in saline which was previously sterilized with autoclave, was intraperitoneally administered. The guinea pigs were sacrificed by bleeding 16 hours after the administration, and 20 ml of the saline containing heparin at a concentration of 10 U/ml was intraperitoneally injected to recover the peritoneal exudate. Hereinafter all the operations were carried out under ice-water cooling condition except for incubation. The recovered exudate was centrifuged at 1,000 rpm for 10 minutes, the precipitate obtained was hemolyzed with purified water for 30 seconds, and returned into isotonicity with the Hanks' solution at double the concentration (not containing phenol red; Nissui Seiyaku), and further it was centrifuged at 1,000 rpm for 10 minutes. The precipitate obtained was suspended in the Hanks' solution and centrifuged and the operations were repeated once more to give the neutrophile.
The collected neutrophile of the guinea pigs was suspended in the Hanks' solution, the number of leukocyte in the suspension was determined by a cytometer (System K-2000; Toa Iyo Denshi Co.), and the suspension diluted with the Hanks' solution to 2×10^6 cells/ml was used in the determination as the cell suspension. After mixing 1 ml of the cell suspension and 10 μl of the purified keratan sulfate oligosaccharide (keratan sulfate tetrasaccharide (I), the keratan sulfate pentasaccharide (II), or the keratan sulfate disaccharide (III)) prepared in Example 1 described above, and the mixture was preincubated at 37° C. for an hour. […]
The supernatant obtained by the centrifugation was separated and the absorbance thereof was determined at 550 nm to estimate the quantity of reducing cytochrome c per 2×10^6 cells after the 10 minutes incubation. The quantity of reducing cytochrome c increases with the generation of active oxygen (O2^-). […]

[2] = 0.5 mg/kg intramuscular, unilateral model

| SMILES | quantity of synovial fluid (FIG. 5, result in words) (papain-induced arthritis; [2]) | inhibitory function for generation of active oxygen (O2^-) (FIG. 10) [1] | Volume of Synovial Fluid (papain-induced arthritis; 0.25 mg/kg intramuscular, n = 9, SD 70.6, p < 0.05) [µL] | Volume of Synovial Fluid (papain-induced arthritis; 0.5 mg/kg intramuscular, n = 10, SD 68.9, p < 0.01) [µL] | Volume of Synovial Fluid (papain-induced arthritis; 1.0 mg/kg intramuscular, n = 9, SD 53.1, p < 0.01) [µL] | volume of synovial fluid (result in words) (papain-induced arthritis; 0.25, 0.5, 1.0 mg/kg intramuscular, unilateral model) | inhibition of generation of active oxygen (O2^-) (FIG. 10) ([1]; 0.01, 0.1 and 1.0 mg/ml) |
| --- | --- | --- | --- | --- | --- | --- | --- |
| CC(=O)N[C@H]1C(O)O[C@H](COS(=O)(=O)O)[C@@H](O[C@@H]2O[C@H](COS(=O)(=O)O)[C@H](O)[C@H](O)[C@H]2O)[C@@H]1O (stereo partly drawn) [keratan sulfate disaccharide (III), Gal(6S)β1-4GlcNAc(6S)] | significantly less than that in the control group | slightly observed | – | – | – | – | – |
| CC(=O)N[C@H]1[C@H](O[C@H]2[C@@H](O)[C@@H](COS(=O)(=O)O)O[C@@H](O[C@H]3[C@H](O)[C@@H](NC(C)=O)C(O)O[C@@H]3COS(=O)(=O)O)[C@@H]2O)O[C@H](COS(=O)(=O)O)[C@@H](O[C@@H]2O[C@H](COS(=O)(=O)O)[C@H](O)[C@H](O)[C@H]2O)[C@@H]1O (stereo partly drawn) [keratan sulfate tetrasaccharide (I), Gal(6S)β1-4GlcNAc(6S)β1-3Gal(6S)β1-4GlcNAc(6S)] | significantly less than that in the control group | – | 619 | 597 | 528 | significantly less than that in the control group | remarkably inhibits the generation of active oxygen (O2^-) depending upon the concentration |
